According to article PMC10793102 (Acta Pharmaceutica Sinica. B, 2023):
Where two headings read alike, the source gives them in different places.

Legend:
[1] = molecular target: hRIPK3 (Homo sapiens, UniProt Q9Y572); experiment: In vitro RIPK3 kinase activity assay; assay type: biochemical
[2] = test system: FADD−/− Jurkat; experiment: Cell viability assay, protection from necroptosis in FADD−/− Jurkat cells; assay type: cell-based; conditions: Homo sapiens, 16 h
[3] = PK study in mice; assay type: in vivo; conditions: male, ICR, mouse, plasma
[4] = molecular target: T1, hRIPK1 (Homo sapiens, UniProt Q13546); experiment: In vitro RIPK1 kinase activity assay; assay type: biochemical; conditions: Enzymatic IC50s RIPK1, hRIPK1 enzymatic assay
T1 sequence (Q13546 1-671): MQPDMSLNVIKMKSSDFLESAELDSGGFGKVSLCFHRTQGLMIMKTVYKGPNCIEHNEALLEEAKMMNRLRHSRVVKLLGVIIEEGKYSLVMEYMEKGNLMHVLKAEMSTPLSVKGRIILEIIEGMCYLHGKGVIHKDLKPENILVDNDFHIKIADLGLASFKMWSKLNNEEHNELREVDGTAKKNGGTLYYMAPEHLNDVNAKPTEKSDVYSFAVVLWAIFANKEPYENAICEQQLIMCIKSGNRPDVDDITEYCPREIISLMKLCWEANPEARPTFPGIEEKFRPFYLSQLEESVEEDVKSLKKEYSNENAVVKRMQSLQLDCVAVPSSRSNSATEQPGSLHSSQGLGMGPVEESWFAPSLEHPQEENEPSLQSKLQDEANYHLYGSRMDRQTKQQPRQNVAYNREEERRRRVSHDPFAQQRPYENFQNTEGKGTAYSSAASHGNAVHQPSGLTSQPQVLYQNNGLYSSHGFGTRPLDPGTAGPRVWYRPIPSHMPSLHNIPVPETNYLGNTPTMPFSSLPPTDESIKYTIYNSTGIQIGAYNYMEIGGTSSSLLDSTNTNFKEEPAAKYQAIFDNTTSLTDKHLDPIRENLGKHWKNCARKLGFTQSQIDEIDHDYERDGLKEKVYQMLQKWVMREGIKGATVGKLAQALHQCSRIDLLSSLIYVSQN

[5] = test system: L929; experiment: Cell viability assay, protection from necroptosis in L929 cells; assay type: cell-based, mouse; conditions: for EC50: Mus musculus, L929, 16 h; for protective effects against cell death of L929 cells induced by TNFα: TNFα 40 ng/mL, 15 h, Fig. 2A
[6] = test system: phosphorylation of RIPK1, RIPK3 and MLKL; experiment: Western blotting of necroptosis pathway in stimulated HT-29 cells; assay type: cell-based, human; conditions: compounds at 5 μmol/L, 4 h
[7] = Metabolic stability in mouse liver microsomes; assay type: in vitro ADME
[8] = Metabolic stability in human liver microsomes; assay type: in vitro ADME
[9] = molecular target: TEL-TRKA fusion (Homo sapiens, UniProt P04629+P41212); experiment: Anti-proliferation in engineered Ba/F3 cells dependent on TEL-TRKA; assay type: cell-based; conditions: read-out: IC50 anti-proliferative effect, TEL-TRKA Ba/F3; 72 h
[10] = Cytotoxicity at high concentrations in cell viability assays; assay type: cell-based
[11] = read-out: EC50 FADD−/− Jurkat T + S
[12] = read-out: EC50 FADD−/− Jurkat TNFα

Sequence of hRIPK3 (Q9Y572 whole entry): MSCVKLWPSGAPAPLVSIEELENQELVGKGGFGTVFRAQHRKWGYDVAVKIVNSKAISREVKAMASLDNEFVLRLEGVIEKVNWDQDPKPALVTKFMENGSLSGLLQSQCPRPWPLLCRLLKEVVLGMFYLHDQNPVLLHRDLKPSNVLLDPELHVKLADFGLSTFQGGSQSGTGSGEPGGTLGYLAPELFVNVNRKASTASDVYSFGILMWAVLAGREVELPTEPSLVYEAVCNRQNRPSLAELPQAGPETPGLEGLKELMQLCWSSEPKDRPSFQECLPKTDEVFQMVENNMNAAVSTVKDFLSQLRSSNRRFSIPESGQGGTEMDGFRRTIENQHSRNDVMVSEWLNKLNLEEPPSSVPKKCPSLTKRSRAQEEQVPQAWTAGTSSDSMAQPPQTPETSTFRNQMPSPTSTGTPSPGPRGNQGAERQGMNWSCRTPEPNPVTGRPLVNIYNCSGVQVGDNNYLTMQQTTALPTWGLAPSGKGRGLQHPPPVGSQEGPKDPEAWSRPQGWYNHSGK
Sequence of TEL-TRKA fusion (P04629 510-781 limits assumed, one chain of several): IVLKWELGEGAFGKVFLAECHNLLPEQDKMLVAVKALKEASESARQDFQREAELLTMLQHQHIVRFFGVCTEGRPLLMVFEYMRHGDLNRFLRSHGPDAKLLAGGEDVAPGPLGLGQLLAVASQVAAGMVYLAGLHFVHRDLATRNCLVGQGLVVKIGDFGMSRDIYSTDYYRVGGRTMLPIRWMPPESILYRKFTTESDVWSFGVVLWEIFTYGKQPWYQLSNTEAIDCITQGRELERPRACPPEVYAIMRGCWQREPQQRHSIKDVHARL

## C[C@H](NC(=O)c1cnn(C)c1Cc1ccccc1)c1ccc(-n2cnc3c(N)ncnc32)cc1 [compound 54, (S)-N-(1-(4-(6-Amino-9H-purin-9-yl)phenyl)ethyl)-5-benzyl-1-methyl-1H-pyrazole-4-carboxamide]
[1]
  IC50: > 1000 nM
[2]; [11]
  EC50: 0.3 nM
[2]; [12]
  EC50: 0.08 nM
[3]; iv, 1 mg/kg
  AUC(0-inf): 672 ng·h/mL
  AUC(0-t): 659 ng·h/mL
  MRT inf: 119 min
  Vd: 2.98 L/kg
  clearance: 25 mL/min/kg
  half-life: 26.4 min
[3]; po, 10 mg/kg
  AUC(0-inf): 2480 ng·h/mL
  AUC(0-t): 2440 ng·h/mL
  Cmax: 1200 ng/mL
  MRT inf: 183 min
  Tmax: 30 min
  bioavailability: 37%
  half-life: 54 min
[4]
  IC50: ~6 nM
[5]; read-out: EC50 L929 T + S
  EC50: 0.6 nM
[5]; read-out: EC50 L929 TNFα
  EC50: 0.4 nM

## CCN1CCN(Cc2ccc(NC(=O)Nc3ccc(-n4cnc5cc(C(=O)NC)ccc54)cc3)cc2C(F)(F)F)CC1 [compound 12]
[6]
  phosphorylation of RIPK1 (Western blot): diminished the phosphorylation of the upstream effector RIPK1
  phosphorylation of RIPK3 and MLKL (Western blot): comparably diminished the phosphorylation of RIPK3 and the downstream MLKL
[5]
  protective effects against cell death of L929 cells induced by TNFα: protective effects similar to 10

## CNC(=O)c1ccc2c(c1)ncn2-c1ccc(CNC(=O)c2cnn(C)c2Cc2ccccc2)cc1 [compound 27]
[7]
  half-life: ~40 min
[2]; [11]
  EC50: 5.2 nM
[2]; [12]
  EC50: 0.5 nM
[8]
  half-life: ~40 min
[5]; read-out: EC50 L929 T + S
  EC50: 77 nM
[5]; read-out: EC50 L929 TNFα
  EC50: 20 nM

## C[C@@H](c1ccc(-n2cnc3c(N)ncnc32)cc1)N1Cc2nn(C)c(Cc3ccccc3)c2C1=O [compound 63, (S)-5-(1-(4-(6-Amino-9H-purin-9-yl)phenyl)ethyl)-3-benzyl-2-methyl-5,6-dihydropyrrolo[3,4-c]pyrazol-4(2H)-one]
[9]
  IC50: > 1000 nM
[2]; [11]
  EC50: 0.4 nM
[2]; [12]
  EC50: 0.03 nM
[3]; iv, 1 mg/kg
  AUC(0-inf): 644 ng·h/mL
  AUC(0-t): 643 ng·h/mL
  MRT inf: 58.2 min
  Vd: 1.6 L/kg
  clearance: 26.7 mL/min/kg
  half-life: 36.6 min
[3]; po, 10 mg/kg
  AUC(0-inf): 1730 ng·h/mL
  AUC(0-t): 1700 ng·h/mL
  Cmax: 714 ng/mL
  MRT inf: 165 min
  Tmax: 40.2 min
  bioavailability: 26.4%
  half-life: 63 min
[5]; read-out: EC50 L929 T + S
  EC50: 1.6 nM
[5]; read-out: EC50 L929 TNFα
  EC50: 0.3 nM

## C[C@H](NC(=O)c1c(Cl)nn(C)c1Cc1ccccc1)c1ccc(-n2cnc3c(N)ncnc32)cc1 [compound 57]
[2]; [11]
  EC50: 0.3 nM
[2]; [12]
  EC50: 0.09 nM
[10]
  cytotoxicity at high concentrations: increased cytotoxicity at higher concentrations
[5]; read-out: EC50 L929 T + S
  EC50: 0.4 nM
[5]; read-out: EC50 L929 TNFα
  EC50: 0.3 nM

## CCN1CCN(Cc2ccc(NC(=O)Cc3ccc(-n4cnc5cc(C(=O)NC)ccc54)cc3)cc2C(F)(F)F)CC1 [compound 11]
[2]; [11]
  EC50: > 10000 nM
[2]; [12]
  EC50: > 10000 nM
[6]
  phosphorylation of RIPK1 (Western blot): diminished the phosphorylation of the upstream effector RIPK1
  phosphorylation of RIPK3 and MLKL (Western blot): comparably diminished the phosphorylation of RIPK3 and the downstream MLKL
[5]; read-out: EC50 L929 T + S
  EC50: 713 nM
[5]; read-out: EC50 L929 TNFα
  EC50: 190 nM
[5]
  protective effects against cell death of L929 cells induced by TNFα: protective effects similar to 10

## CNC(=O)c1ccc2c(c1)ncn2-c1ccc(CNC(=O)c2cc(Cc3ccccc3)n(C)n2)cc1 [compound 20, 1-(4-((5-Benzyl-1-methyl-1H-pyrazole-3-carboxamido)methyl)phenyl)-N-methyl-1H-benzo[d]imidazole-5-carboxamide]
[7]
  half-life: ~40 min
[2]; [11]
  EC50: 44 nM
[2]; [12]
  EC50: 5.1 nM
[8]
  half-life: ~40 min
[5]; read-out: EC50 L929 TNFα
  EC50: 312 nM

## COc1ccc2ncn(-c3ccc(CNC(=O)c4cnn(C)c4Cc4ccccc4)cc3)c2c1 [compound 35]
[2]; [11]
  EC50: 0.6 nM
[2]; [12]
  EC50: 0.01 nM
[5]; read-out: EC50 L929 T + S
  EC50: 0.4 nM
[5]; read-out: EC50 L929 TNFα
  EC50: 0.03 nM

## Cn1ncc(C(=O)NC(C)(C)c2ccc(-n3cnc4c(N)ncnc43)cc2)c1Cc1ccccc1 [compound 56]
[2]; [11]
  EC50: 28 nM
[2]; [12]
  EC50: 7.5 nM
[5]; read-out: EC50 L929 TNFα
  EC50: 550 nM

## C[C@H](NC(=O)c1nnn(C)c1Cc1ccccc1)c1ccc(-n2cnc3c(N)ncnc32)cc1 [compound 58]
[2]; [11]
  EC50: < 0.01 nM
[2]; [12]
  EC50: < 0.01 nM
[10]
  cytotoxicity at high concentrations: increased cytotoxicity at higher concentrations
[5]; read-out: EC50 L929 T + S
  EC50: < 0.01 nM
[5]; read-out: EC50 L929 TNFα
  EC50: < 0.01 nM

## Cn1ncc(C(=O)NCc2ccc(-n3ccc4c(N)ncnc43)cc2)c1Cc1ccccc1 [compound 42]
[2]; [11]
  EC50: 8 nM
[2]; [12]
  EC50: 4.2 nM
[5]; read-out: EC50 L929 T + S
  EC50: 0.9 nM
[5]; read-out: EC50 L929 TNFα
  EC50: 0.1 nM

## CNC(=O)c1ccc2c(c1)ncn2-c1ccc(CC(=O)N(O)Cc2ccccc2)cc1 [compound 14]
[2]; [11]
  EC50: > 10000 nM
[2]; [12]
  EC50: 3800 nM
[5]; read-out: EC50 L929 T + S
  EC50: 98 nM
[5]; read-out: EC50 L929 TNFα
  EC50: 50 nM

## Cn1nc(C(=O)NCc2ccc(-n3cnc4c(N)ncnc43)cc2)cc1Cc1ccccc1 [compound 43]
[2]; [11]
  EC50: 0.3 nM
[2]; [12]
  EC50: 0.06 nM
[5]; read-out: EC50 L929 T + S
  EC50: 384 nM
[5]; read-out: EC50 L929 TNFα
  EC50: 25 nM

## CNC(=O)c1ccc2ncn(-c3ccc(CNC(=O)c4cc(Cc5ccccc5)nn4C)cc3)c2c1 [compound 21]
[2]; [11]
  EC50: > 10000 nM
[2]; [12]
  EC50: > 10000 nM
[5]; read-out: EC50 L929 T + S
  EC50: > 10000 nM
[5]; read-out: EC50 L929 TNFα
  EC50: > 10000 nM

## Cn1nc(Cl)c(C(=O)NCc2ccc(-n3cnc4c(N)ncnc43)cc2)c1Cc1ccccc1 [compound 48, N-(4-(6-Amino-9H-purin-9-yl)benzyl)-5-benzyl-3-chloro-1-methyl-1H-pyrazole-4-carboxamide]
[2]; [11]
  EC50: 0.7 nM
[2]; [12]
  EC50: 0.2 nM
[3]; iv, 1 mg/kg
  AUC(0-inf): 1310 ng·h/mL
  AUC(0-t): 1300 ng·h/mL
  MRT inf: 118 min
  Vd: 1.55 L/kg
  clearance: 13.3 mL/min/kg
  half-life: 48.6 min
[3]; po, 10 mg/kg
  AUC(0-inf): 8400 ng·h/mL
  AUC(0-t): 8280 ng·h/mL
  Cmax: 3050 ng/mL
  MRT inf: 243 min
  Tmax: 25.2 min
  bioavailability: 63.9%
  half-life: 83.4 min
[5]; read-out: EC50 L929 T + S
  EC50: 4.6 nM
[5]; read-out: EC50 L929 TNFα
  EC50: 0.5 nM

## CNC(=O)c1ccc2c(c1)ncn2-c1ccc(CNC(=O)c2nocc2Cc2ccccc2)cc1 [compound 19]
[2]; [11]
  EC50: 113 nM
[2]; [12]
  EC50: 8.1 nM
[5]; read-out: EC50 L929 T + S
  EC50: 3350 nM
[5]; read-out: EC50 L929 TNFα
  EC50: 2140 nM
